According to ChEMBL document CHEMBL1629424, “Does conjugation of antioxidants improve their antioxidative/anti-inflammatory potential?” (Bioorg Med Chem, 2010):
Active and inactive are the calls of the source. The rule behind the calls is not given here.

Experiments:
[1] = Antioxidant activity of the compound assessed as reducing activity of DPPH at 0.1 mM after 60 mins; assay type: functional; parameters: scale not given: the % may be the effect or the level left
[2] = Antioxidant activity of the compound assessed as reducing activity of DPPH at 0.1 mM after 20 mins; assay type: functional; parameters: scale not given: the % may be the effect or the level left
[3] = Inhibition of soybean lipoxygenase; parameters: species or system Glycine max
[4] = Antioxidant activity against AAPH-induced lipid peroxidation assessed as inhibition of conjugated diene hydroperoxide production at 0.1 mM by UV spectrophotometry; assay type: functional
Glycine max [5] = assay: Inhibition of soybean lipoxygenase at 0.05 mM
Glycine max [6] = assay: Inhibition of soybean lipoxygenase at 0.1 mM
Rattus norvegicus = assay: Antiinflammatory activity in Fisher rat assessed as inhibition of carrageenan-induced paw oedema at 0.01 mmol/kg, po measured after 3.5 hrs; assay type: functional
[7] = Cytotoxicity against RAMEC assessed as cell viability after 24 hrs by MTT assay; settings: Rattus norvegicus

Structure (SMILES)	Activity [1]	Activity [2]	IC50 [3] [µM]	inhibition [4]	inhibition (Glycine max [5])	inhibition (Glycine max [6])	inhibition in vivo at 10 µmol/kg (Rattus norvegicus) [%]	IC50 [7] [µM]
O=C(O)/C=C/c1ccc(O)c(O)c1 [CAFFEIC ACID]	6%	5.5%	600	17.5%				
CCCCNC(=O)/C=C/c1c(C)oc2c(C)c3oc(=O)cc(C)c3cc12	8.4%	inactive		66%	inactive	24%		
NCCc1ccc(O)c(O)c1 [DOPAMINE]	86%	86%	100	43%			13	
COc1cc(C)c(/C=C/C(C)=C/C=C/C(C)=C/C(=O)O)c(C)c1C [ACITRETIN]	inactive	inactive		85%	inactive	1%	63	14.6
COc1cc(C)c(/C=C/C(C)=C/C=C/C(C)=C/C(=O)NCCCNCCCCNCCCNC(=O)/C=C/c2c(C)oc3c(C)c4oc(=O)cc(C)c4cc23)c(C)c1C	inactive	inactive	41.5	31%				
Cc1oc2c(C)c3oc(=O)cc(C)c3cc2c1/C=C/C(=O)NCCCNCCCCNCCCNC(=O)/C=C/c1c(C)oc2c(C)c3oc(=O)cc(C)c3cc12	54%	41%		33%	inactive	57%		
N[C@@H](Cc1ccc(O)c(O)c1)C(=O)NCCCNCCCCNCCCNC(=O)[C@@H](N)Cc1ccc(O)c(O)c1	96%	89%		71%	inactive	32%		
NCCCNCCCCNCCCN	4%	4%		inactive	inactive	inactive		
O=C(O)CCc1ccc(O)c(O)c1	100%	100%		47%	inactive	16%		
CC(Cc1ccc(O)c(O)c1)C(C)Cc1ccc(O)c(O)c1 (centres undefined)	83%							
CC1=C(/C=C/C(C)=C/C=C/C(C)=C/C(=O)NCCCNCCCCNCCCNC(=O)/C=C/c2c(C)oc3c(C)c4oc(=O)cc(C)c4cc23)C(C)(C)CCC1	38%	11%		45%	inactive	43%		
CC1=C(/C=C/C(C)=C/C=C/C(C)=C/C(=O)NCCCCCCCCCCCCNC(=O)/C=C(C)/C=C/C=C(C)/C=C/C2=C(C)CCCC2(C)C)C(C)(C)CCC1	13.4%	inactive		41%	inactive	23%		2.8
Cc1oc2c(C)c3oc(=O)cc(C)c3cc2c1/C=C/C(=O)OC(C)(C)C	11%	11%	9.4	80%			46	2.9
COc1ccc(/C=C/C(=O)NCCOCCOC(=O)/C=C/C(=O)n2cc(C(=O)Nc3ccccc3)c3ccccc32)cc1OC	12%	inactive	33.5	inactive				
O=C(CCc1ccc(O)c(O)c1)NCCCNCCCCNCCCNC(=O)CCc1ccc(O)c(O)c1 [KUKOAMINE A]	100%	96%	9.5	72%			43	3.5
COc1cc(C)c(/C=C/C(C)=C/C=C/C(C)=C/C(=O)NCc2ccccc2)c(C)c1C	2%	inactive	40.5	45%			3.6	
CC1=C(/C=C/C(C)=C/C=C/C(C)=C/C(=O)NCCCNCCCCNCCCNC(=O)/C=C(C)/C=C/C=C(C)/C=C/C2=C(C)CCCC2(C)C)C(C)(C)CCC1	5%	inactive		58%	inactive	76%	40	2.6
COc1ccc(/C=C/C(=O)O)cc1OC	10%	9%		56%	inactive	23%		
Cc1oc2c(C)c3oc(=O)cc(C)c3cc2c1/C=C/C(=O)O	11%	11%		73%	inactive	9%		
O=C(O)/C=C/C(=O)n1cc(C(=O)Nc2ccccc2)c2ccccc21	inactive	1%	52.4	85%			11	
COc1cc(C)c(/C=C/C(C)=C/C=C/C(C)=C/C(=O)NCCCNCCCCNCCCNC(=O)/C=C(C)/C=C/C=C(C)/C=C/c2c(C)cc(OC)c(C)c2C)c(C)c1C	38%	26%		97%	inactive	75%	19	4.7
COc1ccc(/C=C/C(=O)NCCCNCCCCNCCCNC(=O)/C=C/c2ccc(OC)c(OC)c2)cc1OC	58%	52%	62	100%			42	11.3
N[C@@H](Cc1ccc(O)c(O)c1)C(=O)O	76%	76%		65%	inactive	23%		
COc1ccc2c(c1)c(CC(=O)O)c(C)n2C(=O)c1ccc(Cl)cc1 [INDOMETHACIN]							47	
COc1ccc(/C=C/C(=O)NCCOCCOC(=O)/C=C/c2c(C)oc3c(C)c4oc(=O)cc(C)c4cc23)cc1OC	15%	inactive	65	98%			9	12.9
Cc1c(C)c2c(c(C)c1O)CCC(C)(C(=O)O)O2 (centres undefined)				63%				
O=C1O[C@H]([C@@H](O)CO)C(O)=C1O	100%	99%						
N[C@@H](Cc1ccc(O)c(O)c1)C(=O)NCCc1ccc(O)c(O)c1	92%	92%	81.5	inactive				
CC1=C(/C=C/C(C)=C/C=C/C(C)=C/C(=O)O)C(C)(C)CCC1 [TRETINOIN]	23%	11%		75%	inactive	inactive	11	18.3
COc1cc(C)c(/C=C/C(C)=C/C=C/C(C)=C/C(=O)NCCc2ccc(O)c(O)c2)c(C)c1C	79%	79%	87	10%			13.7	
